Molecular target: Indoleamine 2,3-dioxygenase 1 (Homo sapiens, UniProt P14902)
Experiment: Inhibition of human recombinant indoleamine-2,3-dioxygenase

Chain of Indoleamine 2,3-dioxygenase 1 (P14902 whole entry): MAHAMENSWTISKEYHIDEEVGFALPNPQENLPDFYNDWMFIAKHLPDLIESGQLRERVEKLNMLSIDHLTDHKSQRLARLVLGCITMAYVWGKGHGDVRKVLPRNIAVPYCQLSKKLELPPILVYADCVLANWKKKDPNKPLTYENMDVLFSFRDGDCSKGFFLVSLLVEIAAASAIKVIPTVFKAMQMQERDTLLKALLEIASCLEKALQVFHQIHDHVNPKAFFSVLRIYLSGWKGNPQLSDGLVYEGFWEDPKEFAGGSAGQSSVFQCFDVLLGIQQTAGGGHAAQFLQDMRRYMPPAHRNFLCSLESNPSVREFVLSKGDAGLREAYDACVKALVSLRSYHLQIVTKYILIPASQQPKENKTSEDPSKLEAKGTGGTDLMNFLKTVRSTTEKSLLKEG

Compound	Ki
CN(C)CCc1ccc(O)c(O)c1C1=C(C2C(=O)N(C)C(=O)N2C)C(=O)c2c(CCN)c[nH]c2C1=O (configuration not stated)	80 nM
CN1C(=O)N(C)[C@]2(Oc3c(O)cc4c(c3C3=C2C(=O)c2c(CCN)c[nH]c2C3=O)[C@H](O)C[N+]4(C)C)C1=O [EXIGUAMINE B]	80 nM

Source: ChEMBL document CHEMBL1221213, “Biomimetic synthesis of the IDO inhibitors exiguamine A and B” (Nat Chem Biol, 2008)
